Assay results published in US8449923B2, “Methods for inhibiting sensory nerves by topically administering strontium-containing compositions to keratinized skin” (Cosmederm Bioscience, Inc., priority 1994, dated 2013).
Where two headings read alike, the source gives them in different places.

Columns and labels:
[1] = tested on: skin irritation induced by lactic acid (face); assay: Lactic acid irritation trial, pretreatment test (anti-irritant applied 15 minutes before irritant); assay type: in vivo, human; details: pretreatment tests; for Percent Inhibition (average inhibition of cumulative irritation): cation salt 250 mM, lactic acid irritant; for Percent Inhibition: representative subject panels, 250 mM, vehicle VIS DIFFERENCE
Experimental: (§1) The majority of the trials were conducted using lactic acid as the skin irritant, and proceeded generally as follows.
(§2) Tests were conducted in multiple panels of from 7 to 12 subjects each. Subjects were instructed not to wear any makeup or facial lotions to the clinic the day of testing. The subjects were instructed to wash their face with Ivory bar soap in the clinic prior to application of test solutions.
(§3) Lactic acid skin-irritant compositions were formulated in an appropriate vehicle prior to application to the skin of the subjects.
(§4) Test anti-irritant formulations containing measured amounts of strontium salts (concentration 250 mM) were applied either (a) 15 minutes prior to application to the skin of the skin-irritant (“pretreatment test”) or (B) simultaneously with the application of the skin-irritant (“time zero test”). […] Controls were performed by applying corresponding formulation(s) (pretreatment and/or skin-irritant composition) with an equimolar amount of sodium chloride to a contralateral portion of the subject's skin. Typically, the test materials were applied to the face of the subject.
(§5) All test solutions (including controls) were applied in a double blind, randomized fashion using the prepared solutions as previously placed in coded vial designated for use on either the right or left side of the face (or other test area). Solutions were typically applied using a cotton swab (six strokes) or sponge applicator to the face and cheek area extending from the midline of the nose over to the center of the cheek and from the cheek bone down to the jaw line. Application was made first to the right side and then to the left.
(§6) Sensory assessment scores were recorded for each treated side of the subject's skin every minute for 15 minutes or until three consecutive scores of “zero” irritation were obtained. The following scaled scores were used for sensory assessment:
(§7) Symptom scores were cumulated, separately for the cation-treated and control-treated areas, for each individual and also for the panel as a whole. Individuals not reporting a cumulative score of at least “7” on at least one treatment area were excluded (in a blinded fashion) from further analysis in order to ascertain anti-irritant efficacy with respect to the more severely-susceptible test subjects. From a practical standpoint, scores of “0” and “1” on the above scale would be considered highly desirable for a commercial product because such a response would likely not result in a consumer ceasing to use a product. Some consumers, in fact, might view the “barely perceptible” sensations represented by a score of 1 to be an indication that a facial treatment skin care product (especially an exfoliant) was working as advertised. By contrast, irritation scores of “2”, “3” and “4” would likely often result in a consumer never purchasing the product again.

[2] = tested on: skin irritation induced by lactic acid (face); assay: Lactic acid irritation trial, time zero test (anti-irritant applied simultaneously with irritant); assay type: in vivo, human; details: for Percent Inhibition (average inhibition of cumulative irritation) / Percent Inhibition: time zero tests; for Percent Inhibition (average inhibition of cumulative irritation): cation salt 250 mM, lactic acid irritant; for Percent Inhibition: representative subject panels, vehicle 10% EtOH
Experimental: as §1, §2, §3, §4, §5, §6, §7

[3] = tested on: skin irritation induced by lactic acid
Experimental: Additional studies of anti-irritant activity using varying concentrations of strontium cations were conducted in order to assess the dose-response behavior of the present formulations. The lactic acid irritation protocol described above was used, in which the anti-irritant cation component was strontium nitrate (31-500 mM).

[4] = tested on: irritation induced by capsaicin; details: 250 mM; capsaicin challenge; pretreatment
From the text: The test compounds of the invention were formulated in Elizabeth Arden “Visible Difference Refining Toner”, with the Toner mixed with equimolar sodium chloride serving as the control. The test solutions (and control) were provided in coded vials for application to either the right or left arms. A template (1.5 in.×4.0 in.) was placed on each forearm to mark the challenge area. The pre-treatment solutions containing the anti-irritant cation of the invention were applied to extend 1 inch beyond the marked challenge area in all directions and were allowed to dry for 5 minutes. 0.5 ml of 0.15% capsaicin cream or a swab moistened with capsaicin solution was thereafter applied to each arm by the clinical technician, who rubbed in the cream using gloved fingers. Application and scoring of test and control formulations was performed sequentially for each arm. Scoring was recorded every minute starting at 5 minutes post-application for 10 minutes and then every 5 minutes for 15 minutes (30 minutes total) for the cream, and every minute starting immediately for 15 minutes for the solution. Assessment was made using the irritation scale described above for the lactic acid test, and a simultaneous visual assessment of erythema was made by the monitoring technician.

Compound	Percent Inhibition (average inhibition of cumulative irritation) [1]	Percent Inhibition [1]	Percent Inhibition (average inhibition of cumulative irritation) [2]	Percent Inhibition ([2]; 250 mM)	Percent Inhibition (cumulative irritation) ([3]; concentration 31 mM)	Percent Inhibition (cumulative irritation) ([3]; concentration 62 mM)	Percent Inhibition (cumulative irritation) ([3]; concentration 125 mM)	Percent Inhibition (cumulative irritation) ([3]; concentration 250 mM)	Percent Inhibition (cumulative irritation) ([3]; concentration 500 mM)	overall efficacy in one panel (FIGS. 1-4) ([2]; 250 mM, time zero test, one panel)	overall efficacy in one representative panel (FIGS. 5-8) [4]
CC(=O)[O-].CC(=O)[O-].[Sr+2] [Strontium acetate]	46%	46%	–	–	–	–	–	–	–	–	–
[Cl-].[Cl-].[Sr+2] [Strontium chloride]	25%	20%	60%	58%	–	–	–	–	–	–	–
O=[N+]([O-])[O-].O=[N+]([O-])[O-].[Sr+2] [Strontium nitrate]	50%	56%	65%	64%	77%	32%	42%	72%	82%	the overall efficacy of the subject formulation is clear	the overall efficacy of the subject formulation is evident
